{"source": "ChEMBL document CHEMBL1143485", "about": "“The synthesis and biological evaluation of dopamine transporter inhibiting activity of substituted diphenylmethoxypiperidines” (Bioorg Med Chem Lett, 2005)", "key": {"Mus musculus": {"tested_on": "Mus musculus", "experiment": "Locomotor activity in mice after intraperitoneal administration at 17.8 […]", "format": "functional"}, "[1]": {"biological_target": "Sodium-dependent dopamine transporter (Rattus norvegicus, UniProt P23977)", "sequence (P23977 whole entry)": "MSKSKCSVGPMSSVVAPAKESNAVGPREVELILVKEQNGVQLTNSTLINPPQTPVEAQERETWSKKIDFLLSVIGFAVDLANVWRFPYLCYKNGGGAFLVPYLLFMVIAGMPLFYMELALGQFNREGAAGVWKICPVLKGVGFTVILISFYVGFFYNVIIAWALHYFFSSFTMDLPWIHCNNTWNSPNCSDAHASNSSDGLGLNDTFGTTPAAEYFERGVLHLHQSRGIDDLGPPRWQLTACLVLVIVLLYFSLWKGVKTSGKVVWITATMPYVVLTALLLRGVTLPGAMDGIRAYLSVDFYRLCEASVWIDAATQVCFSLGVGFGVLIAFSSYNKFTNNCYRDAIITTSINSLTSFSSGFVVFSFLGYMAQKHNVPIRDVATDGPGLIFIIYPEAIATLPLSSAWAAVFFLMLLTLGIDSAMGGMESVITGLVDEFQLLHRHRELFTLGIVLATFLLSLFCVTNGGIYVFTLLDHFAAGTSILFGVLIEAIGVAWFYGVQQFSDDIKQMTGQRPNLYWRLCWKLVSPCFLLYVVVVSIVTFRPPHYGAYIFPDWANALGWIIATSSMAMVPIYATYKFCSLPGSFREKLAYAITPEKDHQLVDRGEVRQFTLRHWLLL", "experiment": "Displacement of [125I]RTI-55 dopamine transporter binding in rat striatal membrane", "format": "cell membranes, Striatum"}}, "data": [{"molecule": "CN1CCC(OC(c2ccccc2)c2ccccc2)CC1", "values": [{"measurement": "Activity", "setting": "Mus musculus", "result": 12.2, "unit": "m/3h"}]}, {"molecule": "CN1CCC(OC(c2ccc(Cl)cc2)c2ccc(Cl)cc2)CC1", "values": [{"measurement": "IC50", "setting": "[1]", "result": 44, "unit": "nM"}, {"measurement": "Activity", "setting": "Mus musculus", "result": 5.18, "unit": "m/3h"}]}, {"molecule": "CN1CCC(OC(c2ccc(F)cc2)c2ccc(F)cc2)CC1", "values": [{"measurement": "Activity", "setting": "Mus musculus", "result": 34.8, "unit": "m/3h"}]}, {"molecule": "CN1CCC(OC(c2ccccc2)c2ccc(Cl)cc2)CC1", "note": "(centres undefined)", "values": [{"measurement": "IC50", "setting": "[1]", "result": 155, "unit": "nM"}, {"measurement": "Activity", "setting": "Mus musculus", "result": 5.89, "unit": "m/3h"}]}, {"molecule": "Cc1cccc(C(OC2CCN(C)CC2)c2ccccc2)c1", "note": "(centres undefined)", "values": [{"measurement": "IC50", "setting": "[1]", "result": 293, "unit": "nM"}]}, {"molecule": "CCCCN1CCC(OC(c2ccc(Cl)cc2)c2ccc(Cl)cc2)CC1", "values": [{"measurement": "IC50", "setting": "[1]", "result": 12.5, "unit": "nM"}, {"measurement": "Activity", "setting": "Mus musculus", "result": 3.87, "unit": "m/3h"}]}, {"molecule": "CC(OC1CCN(C)CC1)c1ccc(F)cc1", "note": "(centres undefined)", "values": [{"measurement": "IC50", "setting": "[1]", "result": 264, "unit": "nM"}]}, {"molecule": "CN1CCC(OC(c2ccccc2)c2ccc(F)cc2)CC1", "note": "(centres undefined)", "values": [{"measurement": "IC50", "setting": "[1]", "result": 277, "unit": "nM"}]}, {"molecule": "Fc1ccc(CN2CCC(OC(c3ccc(Cl)cc3)c3ccc(Cl)cc3)CC2)cc1", "values": [{"measurement": "IC50", "setting": "[1]", "result": 50.6, "unit": "nM"}]}, {"molecule": "COC(=O)[C@H]1[C@@H](OC(=O)c2ccccc2)C[C@@H]2CC[C@H]1N2C", "note": "[COCAINE]", "values": [{"measurement": "Activity", "setting": "Mus musculus", "result": 16.7, "unit": "m/3h"}]}, {"molecule": "Fc1ccc(C(OCCN2CCN(CCCc3ccccc3)CC2)c2ccc(F)cc2)cc1", "note": "[VANOXERINE]", "values": [{"measurement": "Activity", "setting": "Mus musculus", "result": 26.3, "unit": "m/3h"}]}]}
